From the Kinase Knowledgebase extract (Sharma et al. 2016)

Target: MAPK14 (UniProt Q16539)
Assay: Enzyme Assay

MAPK14, sequence (Q16539 whole entry, looked up): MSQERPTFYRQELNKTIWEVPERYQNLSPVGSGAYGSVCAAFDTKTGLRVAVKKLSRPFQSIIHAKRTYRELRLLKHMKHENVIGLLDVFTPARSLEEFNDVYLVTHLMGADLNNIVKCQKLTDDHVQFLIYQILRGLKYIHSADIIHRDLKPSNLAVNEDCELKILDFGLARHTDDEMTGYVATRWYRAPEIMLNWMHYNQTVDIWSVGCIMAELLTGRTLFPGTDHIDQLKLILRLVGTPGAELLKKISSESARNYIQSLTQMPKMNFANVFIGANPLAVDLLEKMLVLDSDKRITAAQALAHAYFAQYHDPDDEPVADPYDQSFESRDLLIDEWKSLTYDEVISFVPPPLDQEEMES

Compound: Nc1ncccc1OCc1cccc(-c2ccccc2)c1
- IC50: < 200 µM

Compound: Cc1ccc2ccccc2c1COc1cccnc1N
- IC50: < 100 µM

Compound: Nc1cnc(OCc2ccccc2)cn1
- IC50: < 1000 µM

Compound: COc1cc(C(=O)Nc2ccc(F)c(COc3cnccn3)c2)nc(Cl)n1
- IC50: < 1000 µM

Compound: CC(C)(C)c1cc(NC(=O)Oc2cccc(COc3cnccn3)c2)n(-c2ccccc2)n1
- IC50: < 200 µM

Compound: O=C(Nc1ccc(F)c(COc2cnccn2)c1)Nc1n[nH]cc1-c1ccccc1
- IC50: < 20 µM

Compound: O=C(Nc1ccccc1)Oc1cccc(COc2cnccn2)c1
- IC50: < 200 µM

Compound: CSc1nnc(NC(=O)Nc2ccc(F)c(COc3cnccn3)c2)s1
- IC50: < 200 µM

Compound: C[S+]([O-])c1nnc(NC(=O)Nc2ccc(F)c(COc3cnccn3)c2)s1 (stereo not drawn)
- IC50: < 1000 µM

Compound: CC(C)(C)c1cc(C(=O)Nc2ccc(F)c(COc3cnccn3)c2)n(Cc2ccc(F)cc2)n1
- IC50: < 20 µM

Compound: O=C(Nc1ccc(F)c(COc2cnccn2)c1)Nc1nnc(Cc2ccccc2)s1
- IC50: < 2 µM

Compound: O=C(Nc1ccc(Cl)c(COc2ccc(NCc3ccccc3)nc2)c1)c1cc(F)cc(N2CCOCC2)c1
- IC50: < 2 µM

Compound: CC1(C(=O)Nc2cnc(OCc3c(Cl)cccc3Cl)cn2)CC1
- IC50: < 200 µM

Compound: O=C1c2ccccc2CN1c1ccc(F)c(COc2cccnc2)c1
- IC50: < 1000 µM

Compound: Cc1cccc(COc2cccnc2N)c1F
- IC50: < 1000 µM

Compound: Nc1ncccc1OCc1cccc(Cl)c1
- IC50: < 1000 µM

Compound: O=C(Nc1ccc(Cl)c(COc2cccnc2)c1)c1ccncc1
- IC50: < 200 µM

Compound: CC(C)(CO)C(=O)Nc1cnc(OCc2c(Cl)cccc2Cl)cn1
- IC50: < 200 µM

Compound: Nc1ncccc1OCc1c(F)cccc1Cl
- IC50: < 1000 µM

Compound: O=C(Nc1ccc(F)c(COc2cnccn2)c1)c1cccc(S(=O)(=O)N2CCOCC2)c1
- IC50: < 2 µM

Compound: Nc1ccc(Cl)c(COc2cccnc2)c1
- IC50: < 1000 µM

Compound: O=C(CN1CCOCC1)Nc1cnc(OCc2c(Cl)cccc2Cl)cn1
- IC50: < 200 µM

Compound: CC(C)(C)n1nc(-c2ccccc2)cc1NC(=O)Nc1ccc(F)c(COc2cnccn2)c1
- IC50: < 20 µM

Compound: O=C1c2ccccc2C(=O)N1c1ccc(Cl)c(COc2cccnc2)c1
- IC50: < 1000 µM

Compound: O=C(Nc1ccc(F)c(COc2cnccn2)c1)Nc1nnc(CC2CC2)s1
- IC50: < 2 µM

Compound: O=C(Nc1ccc(F)c(COc2cnccn2)c1)c1cc(On2nnc3ccccc32)nc(Cl)n1
- IC50: < 1000 µM

Compound: Nc1ncccc1OCc1c(F)cc(F)cc1F
- IC50: < 1000 µM

Compound: CC(C)(Cc1ccncc1)NC(=O)c1cnc(OCc2c(Cl)cccc2Cl)cn1
- IC50: < 20 µM

Compound: O=C(Nc1ccc(Cl)c(COc2cccnc2)c1)c1cccc(C(F)(F)F)c1
- IC50: < 20 µM

Compound: Nc1ncccc1OCc1cc2c(cc1Cl)OCO2
- IC50: < 1000 µM

Compound: Nc1ncccc1OCc1ccccc1C(F)(F)F
- IC50: < 100 µM

Compound: Nc1ccncc1OCc1cccc2ccccc12
- IC50: < 1000 µM

Compound: O=C(Nc1ccc(F)c(COc2cnccn2)c1)Nc1cc(-c2ccc(Cl)cc2)nn1-c1ccccc1
- IC50: < 2 µM

Compound: Cc1nc(-c2cc(C(=O)Nc3ccc(F)c(COc4cnccn4)c3)no2)cs1
- IC50: < 200 µM

Compound: Nc1ncccc1OCc1cccc2ccoc12
- IC50: < 1000 µM

Compound: Clc1cccc(Cl)c1COc1cnc(NC2CCOCC2)cn1
- IC50: < 200 µM

Compound: O=C(Nc1ccc(Cl)c(COc2cccnc2)c1)c1ccnc(N2CCOCC2)c1
- IC50: < 2 µM

Compound: Nc1ncc(OCc2cccc3ccccc23)nc1Br
- IC50: < 1000 µM

Compound: Nc1ncccc1OCn1nnc2ccccc21
- IC50: < 1000 µM

Compound: CN1CCN(CC(=O)Nc2cnc(OCc3c(Cl)cccc3Cl)cn2)CC1
- IC50: < 20 µM

Compound: CC(C)(C)c1cccc(C(=O)Nc2ccc(Cl)c(COc3cccnc3)c2)c1
- IC50: < 2 µM

Compound: Nc1cnc(OCc2c(Cl)cccc2Cl)cn1
- IC50: < 200 µM

Compound: Cc1nc(-c2cccc(C(=O)Nc3ccc(F)c(COc4cnccn4)c3)c2)cs1
- IC50: < 2 µM

Compound: Nc1ncccc1OCc1ccccc1-c1ccccc1
- IC50: < 10 µM

Compound: O=C(Nc1ccc(F)c(COc2cccnc2)c1)c1cncc(N2CCOCC2)n1
- IC50: < 20 µM

Compound: c1cc(COc2cccnc2)cc(COc2cccnc2)c1
- IC50: < 1000 µM

Compound: CC(=O)Nc1ccc(Cl)c(COc2cccnc2)c1
- IC50: < 1000 µM

Compound: CC(C)(C)c1ccc2[nH]cc(CC(=O)Nc3ccc(F)c(COc4cnccn4)c3)c2c1
- IC50: < 200 µM

Compound: Nc1ncccc1OCc1csc2ccccc12
- IC50: < 1000 µM

Compound: O=C(Nc1ccc(F)c(COc2cnccn2)c1)Nc1nc(-c2ccccc2)cs1
- IC50: < 20 µM

Compound: O=C(Nc1cnc(OCc2c(Cl)cccc2Cl)cn1)N1CCOCC1
- IC50: < 2 µM

Compound: CC(C)(C)c1cc(NC(=O)Nc2ccc(F)c(COc3cnccn3)c2)n(-c2ccc(Cl)nn2)n1
- IC50: < 2 µM

Compound: CC(C)(C)c1cc(NC(=O)Nc2ccc(F)c(COc3cnccn3)c2)n(Cc2ccccc2)n1
- IC50: < 2 µM

Compound: CC(C)(C)c1csc(NC(=O)Nc2ccc(F)c(COc3cnccn3)c2)n1
- IC50: < 20 µM

Compound: O=C(Nc1ccc(F)c(COc2cnccn2)c1)Nc1nnc(C2CCCO2)s1 (stereo not drawn)
- IC50: < 2 µM

Compound: O=C(Nc1ccc(F)c(COc2cnccn2)c1)c1ccc2ccccc2c1
- IC50: < 20 µM

Compound: O=C(Nc1ccc(F)c(COc2cnccn2)c1)c1cc(N2CCOCC2)nc(N2CCOCC2)n1
- IC50: < 2 µM

Compound: O=C(Nc1ccc(Cl)c(COc2cnccn2)c1)c1ccccc1
- IC50: < 20 µM

Compound: Cc1ccc(-n2nc(C(C)(C)C)cc2NC(=O)Nc2ccc(F)c(COc3cnccn3)c2)cc1
- IC50: < 2 µM

Compound: CC(C)(C)c1cc(NC(=O)Nc2ccc(F)c(COc3cnccn3)c2)n(-c2ccccc2)n1
- IC50: < 2 µM

Compound: O=C(CC1CCOCC1)Nc1cnc(OCc2c(Cl)cccc2Cl)cn1
- IC50: < 200 µM

Compound: Nc1ncccc1OCc1cccc(C(=O)NCC2CC2)c1
- IC50: < 1000 µM

Compound: CC(C)(C)C(=O)Nc1cnc(OCc2c(Cl)cccc2Cl)cn1
- IC50: < 200 µM

Compound: CC(C)(C)c1cccc(C(=O)Nc2ccc(F)c(COc3cnccn3)c2)c1
- IC50: < 2 µM

Compound: O=C(Nc1ccc(F)c(COc2cnccn2)c1)Nc1cc(-c2ccccc2)[nH]n1
- IC50: < 2 µM

Compound: NS(=O)(=O)CCNC(=O)c1cnc(OCc2c(Cl)cccc2Cl)cn1
- IC50: < 1000 µM

Compound: Clc1cccc(Cl)c1COc1cnccn1
- IC50: < 200 µM

Compound: O=C(Cn1ccnc1)Nc1cnc(OCc2c(Cl)cccc2Cl)cn1
- IC50: < 20 µM

Compound: O=C(Nc1ccc(F)c(COc2cnccn2)c1)c1ccc(=O)n(Cc2ccccc2)c1
- IC50: < 20 µM

Compound: Clc1cccc(Cl)c1COc1ccc(NCc2ccccc2)nc1
- IC50: < 200 µM

Compound: CC(C)(C)c1ccc(C(=O)Nc2ccc(F)c(COc3cnccn3)c2)cc1
- IC50: < 20 µM

Compound: Nc1ncccc1OCc1cccc(OC(F)(F)F)c1
- IC50: < 10000 µM

Compound: O=C(Nc1ccc(Cl)c(COc2cccnc2)c1)c1ccccc1
- IC50: < 20 µM

Compound: O=S(=O)(Nc1ccc(Cl)c(COc2cccnc2)c1)c1ccccc1
- IC50: < 200 µM

Compound: CC(C)(C)c1cc(NC(=O)Nc2ccc(F)c(COc3cnccn3)c2)n(-c2ccc(S(C)(=O)=O)cc2)n1
- IC50: < 2 µM

Compound: CC(C)(CO)NC(=O)Nc1cnc(OCc2c(Cl)cccc2Cl)cn1
- IC50: < 2 µM

Compound: CCNC(=O)c1cnc(OCc2c(Cl)cccc2Cl)cn1
- IC50: < 1000 µM

Compound: O=C(Nc1ccccc1)C(=O)Nc1ccc(Cl)c(COc2cccnc2)c1
- IC50: < 2 µM

Compound: Nc1ncccc1OCc1cccc(C(=O)NCc2cccc3ccccc23)c1
- IC50: < 1000 µM

Compound: O=C(Nc1ccc(F)c(COc2cccnc2)c1)c1ccccc1
- IC50: < 200 µM

Compound: O=C(Nc1ccc(F)c(COc2cccnc2)c1)c1cccc(F)c1
- IC50: < 200 µM

Compound: CNc1cnc(OCc2c(Cl)cccc2Cl)cn1
- IC50: < 200 µM

Compound: O=C(Nc1ccc(F)c(COc2cnccn2)c1)Nc1cc(C2CCOCC2)nn1-c1ccc(F)cc1
- IC50: < 2 µM

Compound: CC(C)(C)OC(=O)Nc1ccc(Cl)c(COc2cnccn2)c1
- IC50: < 1000 µM

Compound: CC(C)(C)c1cc(NC(=O)Nc2ccc(Cl)c(COc3cnccn3)c2)[nH]n1
- IC50: < 20 µM

Compound: Clc1cccc(Cl)c1COc1cnc(NCc2ccccc2)cn1
- IC50: < 20 µM

Compound: Clc1ncccc1OCc1ccccc1
- IC50: < 2000 µM

Compound: Nc1cccc(COc2cncc(Cl)n2)c1
- IC50: < 1000 µM

Compound: O=C(Nc1cccc(COc2cccnc2)c1)c1cc(F)cc(N2CCOCC2)c1
- IC50: < 20 µM

Compound: O=C(CN1CCCCC1)Nc1cnc(OCc2c(Cl)cccc2Cl)cn1
- IC50: < 200 µM

Compound: O=S(=O)(c1ccccc1)N(c1ccc(Cl)c(COc2cccnc2)c1)S(=O)(=O)c1ccccc1
- IC50: < 1000 µM

Compound: Nc1ncccc1OCc1cccc(Cl)c1F
- IC50: < 1000 µM

Compound: CC(C)(C)c1cc(C(=O)Nc2ccc(F)c(COc3cnccn3)c2)n(Cc2ccccc2)n1
- IC50: < 20 µM

Compound: O=C(NCCO)c1cnc(OCc2c(Cl)cccc2Cl)cn1
- IC50: < 1000 µM

Compound: CN1CCC(CC(=O)Nc2cnc(OCc3c(Cl)cccc3Cl)cn2)CC1
- IC50: < 200 µM

Compound: Nc1ncc(OCc2ccccc2)nc1Br
- IC50: < 1000 µM

Compound: Nc1nccnc1OCc1cccc2ccccc12
- IC50: < 1000 µM

Compound: c1cc(COc2cnccn2)cc(Nc2nc3ccccc3o2)c1
- IC50: < 200 µM

Compound: CN1CCCC(CNC(=O)c2cnc(OCc3c(Cl)cccc3Cl)cn2)C1 (stereo not drawn)
- IC50: < 1000 µM

Compound: Nc1ncccc1OCc1ccc(F)c(F)c1
- IC50: < 1000 µM

Compound: CC(C)c1nnc(NC(=O)Nc2ccc(F)c(COc3cccnc3)c2)s1
- IC50: < 20 µM

Compound: Cc1nc2sccn2c1C(=O)Nc1ccc(F)c(COc2cnccn2)c1
- IC50: < 2 µM

Compound: CC(C)(CO)NC(=O)c1cnc(OCc2c(Cl)cccc2Cl)cn1
- IC50: < 20 µM

Compound: CC(C)(C)c1cc(NC(=O)Nc2ccc(F)c(COc3cnccn3)c2)n(-c2ccc(F)cc2F)n1
- IC50: < 2 µM

Compound: CC(C)(C)c1ccc(-n2nc(C3CC3)cc2NC(=O)Nc2ccc(F)c(COc3cnccn3)c2)cc1
- IC50: < 200 µM

Compound: CC(C)(C)c1cc(NC(=O)Nc2ccc(F)c(COc3cnccn3)c2)n(-c2ccc(Cl)cc2)n1
- IC50: < 2 µM

Compound: O=C(Nc1ccc(F)c(COc2cnccn2)c1)Oc1cccc(C(F)(F)F)c1
- IC50: < 20 µM

Compound: Nc1ncccc1OCc1ccccc1CS(=O)(=O)c1ccccc1
- IC50: < 1000 µM

Compound: Nc1ncccc1OCc1ccc(Cl)cc1Cl
- IC50: < 1000 µM

Compound: Clc1cccc(Cl)c1COc1cnc(N2CCOCC2)cn1
- IC50: < 200 µM

Compound: Cc1cc(C)cc(COc2cccnc2N)c1
- IC50: < 200 µM

Compound: O=C(Nc1cccc(COc2cccnc2)c1)c1ccccc1
- IC50: < 200 µM

Compound: O=C(Nc1ccccc1)Nc1ccc(Cl)c(COc2cccnc2)c1
- IC50: < 20 µM

Compound: O=C(Nc1ccc(F)c(COc2cnccn2)c1)c1nnc(-c2ccccc2)o1
- IC50: < 2 µM

Compound: c1ccc(CNc2cccc(COc3cnccn3)c2)cc1
- IC50: < 1000 µM

Compound: O=C(Nc1ccc(F)c(COc2cnccn2)c1)Nc1cc(-c2ccc(Cl)cc2)nn1-c1ccc(F)cc1
- IC50: < 2 µM

Compound: Cc1cc(-n2nc(C(C)(C)C)cc2NC(=O)Nc2ccc(F)c(COc3cnccn3)c2)nc(C)n1
- IC50: < 2 µM

Compound: O=C(Nc1ccc(F)c(COc2cnccn2)c1)Nc1ncc(-c2ccc(Cl)cc2)s1
- IC50: < 200 µM
